{"source": "patent US4309559A", "about": "“Sulphonamides useful as pesticides” (FBC Limited, priority 1977, dated 1982)", "key": {"[1]": {"system": "Ryegrass (Lolium perenne)", "assay": "Soil incorporation (attaclay/sand dust), growth regulatory or herbicidal effects, ryegrass", "type": "in vivo", "settings": "504 h, soil incorporation 26 ppm, 21 days, 0=no effect, 100=complete kill, read-out: growth regulatory or herbicidal effect score", "how_it_was_run": "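Dust-formulated compound incorporated in potting compost, 26 or 130 ppm w/v; seeds sown, watered, 21 d at 22° C, 65-85% RH, 14 h/day 13,000 lux. Visual growth-regulatory/herbicidal score 0 (no effect) to 100 (complete kill) vs untreated.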"}, "Wild Oat (Avena fatua)": {"system": "Wild Oat (Avena fatua)", "assay": "Pre-emergence soil surface spray, wild oat", "type": "in vivo", "settings": "soil surface spray 2.8 kg/ha, 21 days, 0=no effect, 100=complete kill", "how_it_was_run": "(§1)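 Compounds are applied to the compost surface right after sowing, at 2.8 kg active ingredient per hectare. After 21 days in a controlled environment room at 22° C., any difference from untreated plants is rated visually from 0 (no effect) to 100 (complete kill).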"}, "[2]": {"system": "Blackgrass (Alopecurus myosuroides)", "assay": "Pre-emergence soil surface spray, blackgrass", "type": "in vivo", "settings": "soil surface spray 2.8 kg/ha, 21 days, 0=no effect, 100=complete kill", "how_it_was_run": "as §1"}, "Pythium ultimum [3]": {"system": "Pythium ultimum", "assay": "Fungal growth on the surface of soil infected with damping-off disease organism", "type": "in vivo", "settings": "6 days, 25° C., 0-8 scale"}, "Pythium ultimum [4]": {"system": "Pythium ultimum", "assay": "Cabbage seedling emergence in soil infected with Pythium ultimum", "type": "in vivo, Pythium ultimum (on cabbage, variety Flower of Spring)", "settings": "6 days, 25° C., 0-8 scale", "how_it_was_run": "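Potting compost infested with one-week maize meal/sand Pythium ultimum culture (3 kg per 12 l soil), drenched with compound in Tween 20/water at 1500, 500, 150 or 50 ppm; 15 cabbage seeds sown per carton, 25° C, four replicates. After six days, soil-surface fungal growth and seedling emergence scored 0-8.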"}}, "data": [{"smiles": "CCCS(=O)(=O)N(c1c(C)cccc1C)C(C)C(=O)OCC", "note": "(stereo not shown) [Example 24, N-(1-[ethoxycarbonyl]ethyl)-2',6'-dimethyl-1-propanesulphonanilide]", "values": [{"measurement": "pest or weed control at 26 µg/mL", "setting": "[1]", "result": 100, "unit": "%"}, {"measurement": "growth regulatory or herbicidal effect score", "setting": "Wild Oat (Avena fatua)", "result": 100}, {"measurement": "growth regulatory or herbicidal effect score", "setting": "[2]", "result": 100}, {"measurement": "Mycelial Control Score", "setting": "Pythium ultimum [3]; 30 ppm", "result": "0 (<20% inhibition)"}, {"measurement": "Mycelial Control Score", "setting": "Pythium ultimum [3]; 100 ppm", "result": "0 (<20% inhibition)"}, {"measurement": "Germination Score", "setting": "Pythium ultimum [4]; 30 ppm", "result": "1 (20-34% inhibition)"}, {"measurement": "Germination Score", "setting": "Pythium ultimum [4]; 100 ppm", "result": "5 (65-74% inhibition)"}]}]}
